Patent publication US6087395A, “Isocarbacyclin derivatives as apoptosis inhibitors” (Japan Science and Technology Corporation, priority 1997, dated 2000)

How the values were obtained:
[1] = rhesus monkey, in vivo
hippocampal neurons = assay: Hippocampal neuron apoptosis induced by high-oxygen (50% oxygen) incubation; type: cell-based, rat (Wistar strain, fetal); settings: 48 hours; for survival rate of neurons at 3000 nM (FIG. 2): control = neurons in 9% oxygen; for survival rate of hippocampal neurons incubated in 50% oxygen (FIG. 1): 5 μM (bFGF 50 nM), neurons in 9% oxygen as control; for IC50: Rattus norvegicus, Hippocampal neuron, read-out: IC50 (inhibition of hippocampal neural apoptosis); for dose-dependent effect on hippocampal neural apoptosis / neuroprotection (FIG. 2): range of concentrations tested, n=4
Method: Effect of 15R-TIC and Deoxy-TIC on hippocampal neuron apoptosis induced by a high-oxygen incubation was tested.
Isocarbacyclin was a pure sample supplied from Teijin Co., Ltd. 15S-TIC was prepared in accordance with the method disclosed in Example 3 of JP-A 245,498/96 by using 15S-16-m-tolyl-17,18,19,20-tetra-nor-carbacyclin which is also disclosed in Example 2 of the same Publication JP-A 245,498/96. The 15R-TIC was prepared by the same method as disclosed in Example 3 of the Publication JP-A 245,498/96. bFGF was the commercially available one.
Hippocampal region was cut out from the fetal rat brain which was aseptically isolated from a pregnant rat (Wistar strain) of […] and the hippocampal region was dispersed into neurons by shaking culture for 30 minutes in a PBS (Ca- and Mg-free) containing DL-cysteine (0.2 mg/ml), bovine serum albumin (0.2 mg/ml), glucose (5 mg/ml), DNase I (0.01%) and papain (9 units/ml). After that, each neutron was planted at the density of 5×10^5 cells/cm^2 on a 24-well plate (coated with polyethyleneimine) filled with a DME/F-12 medium (containing 5% equine serum and 5% fetal bovine serums and incubated for two days in a 5% carbon dioxide gas incubator (9% oxygen). After that, the culture medium was substituted with an DME/F-12 medium (containing 5 μg/ml of transferrin, 5 μg/ml of insulin and 5 nM progasterone) wherefrom serum was removed. Then each sample to be tested was added to the medium, and after 30 minutes, transfered into 50% oxygen. After incubating in 50% oxygen for 48 hours, the survival rate of the neurons was measured. The neurons in 9% oxygen were also added to each sample and the survival rate was measured.
Which regard to the survival rate, the neurons were immobilized by 4% paraformaldehyde, stained with anti-MAP2 antibody and colored by DAB, and the cells positive to MAP2 were counted from the 200-fold enlarged picture whereupon the survival rate was calculated.

[2] = tested on: hippocampal CA1 pyramidal neurons; assay: Hippocampal CA1 pyramidal neuron apoptosis induced by transient forebrain ischemia, in vivo; parameters: species or system mongolian gerbil; settings: continuous infusion into left lateral ventricle for 7 days
Method: Effect of 15R-TIC on hippocampal CA1 pyramidal neurons apoptosis induced by ischemic damage in mongolian gerbils was tested in vivo.
To examine whether 15R-TIC can prevent nouronal death in vivo, using an osmotic mini-pomp, 15R-TIC solution was continuously infused for 7 days (started 2 days before the transient ischemia and ended at 5 days) into the left lateral ventricle of gerbils that had been subjected to a transient forebrain ischemia for 3 minutes. Survival number of CA1 pyramidal neurons was assessed by counting neurons with cell bodies larger than 10 μm in the Nissl-staining sections.

Row | SMILES | pass through blood-brain-barrier / transfer into brain ([1]; iv) | survival rate of hippocampal neurons incubated in 50% oxygen (FIG. 1) (hippocampal neurons) | dose-dependent effect on hippocampal neural apoptosis / neuroprotection (FIG. 2) (hippocampal neurons) | also measured
1 | COC(=O)CCCCC1=C[C@H]2C[C@@H](O)[C@H](/C=C/[C@H](O)Cc3cccc(C)c3)[C@H]2C1 [15R-TIC methyl ester] | efficiently transfererd into the brain |  |  | conversion in the brain (prodrug behaviour) [1]: is converted to 15R-TIC in the brain
2 | Cc1cccc(C[C@@H](O)/C=C/[C@@H]2[C@H]3CC(CCCCC(=O)O)=C[C@H]3C[C@H]2O)c1 [15R-TIC, 15R-16-(m-tolyl)-17,18,19,20-tetranorisocarbacyclin] |  | an increase in the survival rate of neurons was observed to the same or even better extent as compared with the case of bFGF | dose-dependent inhibitory effect on neural apoptosis | survival rate of neurons at 3000 nM (FIG. 2) (hippocampal neurons): equivalent to the control; IC50 (hippocampal neurons): ~300 nM; loss of CA1 pyramidal neurons induced by forebrain ischemia [2]: blocked the loss of CA1 pyramidal neurons induced by forebrain ischemia; number of CA1 pyramidal neurons ([2]; in a 20 μm thick section, n=4, 3 minutes transient forebrain ischemia, ischemia-free control 1061±220, vehicle 142±28): 984±299
3 | Cc1cccc(C[C@H](O)/C=C/[C@@H]2[C@H]3CC(CCCCC(=O)O)=C[C@H]3C[C@H]2O)c1 [15S-TIC, reference compound] |  | greatly reduced by apoptosis induced by a high-oxygen condition as same as under the control condition | did not have any effect on neuroprotection in the range of concentrations tested | 
4 | Cc1cccc(CC/C=C/[C@@H]2[C@H]3CC(CCCCC(=O)O)=C[C@H]3C[C@H]2O)c1 [Deoxy-TIC, 15-Deoxy-16-(m-tolyl)-17,18,19,20-tetranorisocarbacyclin] |  | an increase in the survival rate of neurons was observed to the same or even better extent as compared with the case of bFGF | dose-dependent inhibitory effect on neural apoptosis | survival rate of neurons at 3000 nM (FIG. 2) (hippocampal neurons): equivalent to the control; IC50 (hippocampal neurons): ~30 nM
5 | COC(=O)CCCCC1=C[C@H]2C[C@@H](O)[C@H](/C=C/[C@H](O)Cc3cccc([11CH3])c3)[C@H]2C1 [RTA] | equivalent pass through blood-brain-barrier |  |  | conversion in the brain (prodrug behaviour) [1]: could serve as a prodrug for 15R-TIC; retention in the brain ([1]; iv): retained in the brain further than RTC
6 | Cc1cccc(C[C@@H](O)/C=C/[C@@H]2[C@H]3CC(CCCCC(=O)O[11CH3])=C[C@H]3C[C@H]2O)c1 [RTC] | equivalent pass through blood-brain-barrier |  |  | 
7 | CCCCC[C@H](O)/C=C/[C@@H]1[C@H]2CC(CCCCC(=O)O)=C[C@H]2C[C@H]1O [isocarbacyclin] |  | greatly reduced by apoptosis induced by a high-oxygen condition as same as under the control condition | did not have any effect on neuroprotection in the range of concentrations tested | 
